Values quoted from earlier work, collected in US20100202983A1, “SELECTIVELY TARGETED ANTIMICROBIALS FOR THE TREATMENT OF PERIODONTAL DISEASE” (priority 2009, published 2010).

Tested on: S. mutans
Conditions: cell culture

Row | Substance | efficacy for reducing the colony forming units of S. mutans
1 | FBRW-22: antimicrobial peptide useful in the present invention (RWRWRWFGGGFKKFWKWFRRF; FBRW-22) | efficacy has been demonstrated
2 | FBRW-15: antimicrobial peptide useful in the present invention (IKQLLHFFQRFGGGRWRWRWF; FBRW-15) | efficacy has been demonstrated
3 | FBRW-24: antimicrobial peptide useful in the present invention (RWRWRWFGGGLKRFLKWFKRF; FBRW-24) | efficacy has been demonstrated
4 | FBRW-16: antimicrobial peptide useful in the present invention (LKRFLKWFKRFGGGRWRWRWF; FBRW-16) | efficacy has been demonstrated
5 | FBα-21: antimicrobial peptide useful in the present invention (RWRRLLKKLHHLLHGGGIKQLLHFFQRF; FBalpha-21) | efficacy has been demonstrated
6 | FBα-20: antimicrobial peptide useful in the present invention (RWRRLLKKLHHLLHGGGFKKFWKWFRRF; FBalpha-20) | efficacy has been demonstrated

Tested on: S. mutans
Conditions: not given

Row | Substance | efficacy for reducing the biofilms formed by S. mutans, and other microbial pathogenic microbes
7 | C16G2: S. mutans-specific targeting peptide linked via linker peptide to an antimicrobial peptide (TFFRLFNRSFTQALGKGGGKNLRIIRKGIHIIKKY; selectively/specifically targeted antimicrobial peptide (STAMP) chimeric polypeptide C16G2) | efficacy has been demonstrated
8 | M8-33: S. mutans-specific targeting peptide linked via linker peptide to an antimicrobial peptide (TFFRLFNRSGGGFKKFWKWFRRF; selectively/specifically targeted antimicrobial peptide (STAMP) chimeric polypeptide M8-33) | efficacy has been demonstrated
9 | M8G2: S. mutans-specific targeting peptide linked via linker peptide to an antimicrobial peptide (TFFRLFNRGGGKNLRIIRKGIHIIKKY; selectively/specifically targeted antimicrobial peptide (STAMP) chimeric polypeptide M8G2) | efficacy has been demonstrated
10 | 1903 BD2-21: S. mutans-specific targeting peptide linked via linker peptide to an antimicrobial peptide (NIFEYFLEGGGKLFKFLRKHLL; selectively/specifically targeted antimicrobial peptide (STAMP) chimeric polypeptide 1903-BD2.21) | efficacy has been demonstrated
11 | C16 BD2.21: S. mutans-specific targeting peptide linked via linker peptide to an antimicrobial peptide (TFFRLFNRSFTQALGKGGGKLFKFLRKHLL; selectively/specifically targeted antimicrobial peptide (STAMP) chimeric polypeptide C16-BD2.21) | efficacy has been demonstrated

Tested on: Porphyromonas gingivalis and Streptococcus mitis
Conditions: Murakami et al., Infect. Immun. 59:3284 (1991)

Row | Substance | inhibition of coaggregation between Porphyromonas gingivalis and Streptococcus mitis
12 | Histatin 5: 24-residue peptide from human saliva with antifungal properties (DSHAKRHHGYKRKFHEKHHSHRGY; histatin 5 peptide) | inhibits coaggregation
